Values of other authors in article PMC9943811 (Diabetes Therapy, 2022).

Conditions: ref [19], [20]

terminal half-life: around 12 h
Compound: N[C@@H](CC(=O)N1CCn2c(nnc2C(F)(F)F)C1)Cc1cc(F)c(F)cc1F [sitagliptin]
